{
  "source": "patent US20100022637A1",
  "about": "“IDENTIFICATION OF ANTI-CANCER COMPOUNDS AND COMPOUNDS FOR TREATING HUNTINGTON'S DISEASE AND METHODS OF TREATMENT THEREOF” (THE TRUSTEES OF COLUMBIA UNIVERSITY IN THE CITY OF NEW YORK, priority 2005, published 2010)",
  "key": {"N548 mutant cells": {"test_system": "N548 mutant cells", "assay": "in vitro"}, "parental ST14A cells": {"test_system": "parental ST14A cells", "assay": "Cell death rescue in parental cells (selectivity counter screen)", "format": "cell-based, rat", "conditions": "in words", "method": "Cell death is indicated by a decrease in fluorescence. […] (with 5% CO2).\nIdentification of selective inhibitors of mutant-htt toxicity: As a first step towards probing mechanisms of action of these compounds, it was tested whether compounds selectively targeted pathways that are perturbed by mutant htt or if they suppressed a general death mechanism. Caspase activation was tested to see if it contributed to cell death in this model, since caspase-dependent pathways have been broadly implicated in cell death and in HD (Thornberry, N. and Y. Lazebnik, Science 1998, 281:1312-6; Sanchez Mejia, R and R. Friedlander Neuroscientist 2001, 7: 480-9; Hickey M. and M. Chesselet, Prog Neuropsychopharmacol Biol Psych 2003, 27: 255-65). Caspase activation was monitored via measuring the cleavage of specific fluorogenic caspase substrates. […] The decreased caspase activation in WT N548 cells was consistent with relative protection of these cells from cell death. […] Thus, the ability of a compound to rescue cell death in ST14A cells could be used as a selectivity filter to differentiate compounds that were selective for pathways selective for mutant htt induced cell death. The selectivity of rescue by a compound was determined by assessing rescue of cell death in parental ST14A cells. […]"}, "caspases": {"test_system": "caspases", "assay": "Caspase assay (fluorogenic AFC substrates)", "format": "cell-based, rat", "conditions": "50 μM; ST14A and N548 mutant cells, serum deprivation 39° C.", "method": "Caspase activity was measured using a fluorogenic assay (Biovision Inc. CA), based on cleavage of AFC (7-amino-4-trifluoromethyl coumarin) from specific AFC-conjugated peptide substrates by activated caspases. Each cell line was seeded at 10^6 cells/plate, incubated overnight at 33° C., and then incubated for 6 h at 39° C. in 0.5% IFS containing medium with or without BOC-D-fmk (50 μM). Four plates/sample were harvested in lysis buffer provided by the manufacturer. Peptide substrates were added to the cell lysate or to lysis buffer (control), incubated at 37° C. for 2 h, and fluorescence (ex 355/em 510 nm) measured on a plate reader (Perkin Elmer Victor^3). Fluorescence intensities of controls were subtracted from sample intensity and the resulting value normalized to protein in each sample (Bradford Assay from BioRad; Hercules, Calif.)."}, "p53": {"test_system": "p53", "assay": "Western blot of p53 (p21, MDM2) levels", "format": "cell-based, human", "conditions": "RKO-E6 cells; in words", "method": "Protein content was quantified using a BioRad protein assay reagent (BioRad, cat #500-0006). Equal amounts of protein were resolved on SDS-polyacrylamide gels. Proteins were transferred onto a PVDF membrane, blocked with 5% milk, and incubated with the appropriate primary and secondary antibodies. […] To test for equivalent loading in each lane, blots were stripped, blocked and probed with an anti-eIF-4E antibody."}, "[1]": {"test_system": "HeLa, TC32, A673, BJELR cells", "assay": "Alamar Blue viability assay, other cancer cell lines", "format": "cell-based", "conditions": "TC32 (A673 for T55D7)", "method": "(§1) Each cell line (RKO, RKO-E6, HeLa and TC32) was treated with a dose combination matrix of doxorubicin and a selected hit compound. Each treatment was done in a triplicate in 384-well format. The average percent inhibition of cell proliferation, measured with Alamar Blue, was determined using the following formula: […]"}, "RKO cells [2]": {"test_system": "RKO cells", "assay": "Flow cytometry cell cycle distribution, RKO", "format": "cell-based, human", "conditions": "24 h, propidium iodide", "method": "(§2) RKO, RKO-E6 or HeLa cells were seeded in 20-cm dishes in 10 ml of growth medium. Cells were allowed to adhere and then treated with the selected compounds for 24 h. The treated cells were collected, washed 2× with PBS and counted. The cell pellet was re-suspended in 500 μl of ice cold PBS and 2-5 ml of cold 70% ethanol (−20° C.) were added. Cells were fixed for 1 h or overnight. 5-10 million cells were placed into a 15-ml conical tube and centrifuged at 1000 g. Cells were washed 2× with 1% calf serum in PBS. Cells were resuspended in 800 μl of 1% calf serum in PBS and 100 μl of Rnase (1 mg/ml) and 100 μl of propidium iodide (400 μg/ml) added. Cells were incubated at 37° C. for 30 min and then analyzed on flow cytometer."}, "RKO-E6 cells [3]": {"test_system": "RKO-E6 cells", "assay": "Alamar Blue viability assay, RKO-E6", "format": "cell-based, human", "conditions": "for effect on doxorubicin's lethality in RKO-E6 cells: co-treatment with 0.5 μg/ml doxorubicin, 24 h", "method": "(§3) RKO colon carcinoma, human (ATCC, order # CRL-2577), RKO-E6 colon carcinoma transfected with HPV E6 inserted in pCMV.3 (ATCC, order # CRL-2578) were grown in MEM with 2 mM L-glutamine and Earle's BBS adjusted to contain 1.5 g/L NaHCO3, 0.1 mM non-essential amino acids and 1.0 mM sodium pyruvate, and supplemented with 10% fetal bovine serum, penicillin and streptomycin (pen/strep). Both cell lines were incubated at 37° C. in a humidified incubator containing 5% CO2.\nThe Alamar Blue assay incorporates a fluorimetric/colorimetric growth indicator that changes color in the response to chemical reduction by viable cells (Nociari 1998). Cells were seeded at a density of 3,000 cells (57 μl) per well in a 384-well black, clear-bottom plates using a syringe bulk dispenser (Zymark Sciclone ALH). Three microliters were removed from a compound daughter plate using a 384 fixed cannula head and added to the assay plate, making the final concentration 4 μg/ml. The plates were incubated for 24 h at 37° C. 10 μl of 40% Alamar Blue (Biosource Int., cat #DAL1100) solution in media was added to each well (1:10 dilution). The assay plates were incubated for 16h. Fluorescence intensity was determined using a Packard Fusion platereader with a 535 nm excitation filter and a 590 nm emission filter. The average fluorescence for the whole plate was used as a positive control. Average percentage inhibition for each well was determined using our freely available SLIMS software (Kelley et al., 2004).\nThe daughter plates for the 2-fold dilution series were prepared with a Zymark Sciclone ALH by diluting the replica daughter plates to obtain compound concentrations from 8 μg/ml-0.008 μg/ml (columns 8-18). Columns 1-7 were used as untreated control. RKO-E6 cells were seeded at the density of 3,000 per well in 55 μl, and 5 μl were added from the daughter plate. RKO cells were seeded at the density of 2,000 per well in 55 μl, and 5 μl were added from the daughter plate. The assay was incubated for 24 h at 37° C. 10% Alamar Blue was added to each well and the assay was incubated for 16 h (see above). Compounds for retesting were purchased from the manufacturers or from Sigma-Aldrich (see above). Stocks were prepared in DMSO at 4 mg/ml.\nas §1"}, "RKO-E6 cells [4]": {"test_system": "RKO-E6 cells", "assay": "Flow cytometry cell cycle distribution, RKO-E6", "format": "cell-based, human", "conditions": "24 h, propidium iodide", "method": "as §2"}, "RKO cells [5]": {"test_system": "RKO cells", "assay": "Alamar Blue viability assay, RKO", "format": "cell-based, human", "conditions": "in words", "method": "as §3\nThe Alamar Blue assay incorporates a fluorimetric/colorimetric growth indicator that changes color in the response to chemical reduction by viable cells (Nociari 1998). Cells were seeded at a density of 3,000 cells (57 μl) per well in a 384-well black, clear-bottom plates using a syringe bulk dispenser (Zymark Sciclone ALH). […] Fluorescence intensity was determined using a Packard Fusion platereader with a 535 nm excitation filter and a 590 nm emission filter. The average fluorescence for the whole plate was used as a positive control. Average percentage inhibition for each well was determined using our freely available SLIMS software (Kelley et al., 2004). […]\nEach cell line (RKO, RKO-E6, HeLa and TC32) was treated with a dose combination matrix of doxorubicin and a selected hit compound. […] The average percent inhibition of cell proliferation, measured with Alamar Blue, was determined using the following formula: […]"}, "N2 worms": {"test_system": "N2 worms", "conditions": "6 mM; cited from earlier work"}, "topoisomerase IIα": {"test_system": "topoisomerase IIα", "assay": "Western blot of topoisomerase IIα level", "format": "cell-based, human", "conditions": "RKO and/or RKO-E6 cells; in words", "excerpt": "Antibodies were obtained form the following suppliers: p53 (Oncogene/Calbiochem, cat #OP43), p21 (Santa Cruz Biotechnology inc., cat #sc-817), MDM2 (Santa Cruz Biotechnology Inc., cat #sc-965), Topoisomerase IIα (TopoGEN, cat #2011-1), Topoisomerase I (BD PharMingen, cat #556597), Cyclin B (BD Transduction Laboratories, cat #610219), Cyclin A (BD Transduction Laboratories, cat #611268), Anti-Fluorescein-HRP (Molecular Probes, cat #A21253), Anti-biotin-HRP (Cell Signaling Technology, cat #7075, Jackson ImmunoResearch Laboratories, cat #200-032-096), eIF4E (Santa Cruz Biotechnology Inc., cat #sc-9976 HRP).\nCells were lysed in denaturing lysis buffer (50 mM HEPES KOH [pH 7.4], 40 mM NaCl, 2 mM EDTA, 1.5 mM Na3VO4, 50 mM NaF, 10 mM sodium pyrophosphate, 10 mM sodium β-glycerophosphate, 0.5% Triton X-100, and protease inhibitor tablet [Roche, cat #11777700]). Protein content was quantified using a BioRad protein assay reagent (BioRad, cat #500-0006). Equal amounts of protein were resolved on SDS-polyacrylamide gels. Proteins were transferred onto a PVDF membrane, blocked with 5% milk, and incubated with the appropriate primary and secondary antibodies. […]"}},
  "data": [
    {"smiles": "COC(=O)CC(NC(=O)OC(C)(C)C)C(=O)CF", "note": "[BOC-D-fmk, reference compound]", "values": [
      {"measurement": "rescue of cell death in mutant N548 cells", "setting": "N548 mutant cells; in words", "value": "rescued cell death"},
      {"measurement": "EC50", "setting": "N548 mutant cells; nonselective hits (rescue also parental ST14A), 0.5% IFS, 39° C., 3 d", "value": 25, "unit": "µM"},
      {"measurement": "TC50", "setting": "N548 mutant cells; nonselective hits, maximum concentration tested 80 μM", "value": "ND(80)"},
      {"measurement": "Activity", "setting": "N548 mutant cells; nonselective hits, scale not defined", "value": 3},
      {"measurement": "rescue of cell death in parental ST14A cells", "setting": "parental ST14A cells", "value": "rescued cell death"},
      {"measurement": "caspase activation", "setting": "caspases", "value": "prevented caspase activation"}
    ]},
    {"smiles": "S=C1N(CN2CCOCC2)CCN1CN1CCOCC1", "note": "[Compound T55D7, 1,3-bis(4-morpholinylmethyl)-2-imidazolidinethione]", "values": [
      {"measurement": "p53, p21, MDM2 levels", "setting": "p53", "value": "did not change p53 concentration"},
      {"measurement": "effect on doxorubicin's potency in other cell lines", "setting": "[1]", "value": "upregulated doxorubicin's potency in other cell lines"},
      {"measurement": "cell cycle effect in RKO cells", "setting": "RKO cells [2]", "value": "virtually no changes in the cell cycle"},
      {"measurement": "concentrations with doxorubicin-independent lethality", "setting": "RKO-E6 cells [3]; absence of doxorubicin", "value": "30 to 100", "unit": "µM"},
      {"measurement": "effect on doxorubicin's lethality in RKO-E6 cells", "setting": "RKO-E6 cells [3]; in words", "value": "increase both doxorubicin's and camptothecin's lethality"},
      {"measurement": "effect on camptothecin's lethality", "setting": "RKO-E6 cells [3]; co-treatment with camptothecin, in words", "value": "increase both doxorubicin's and camptothecin's lethality"},
      {"measurement": "effect on podophyllotoxin's lethality", "setting": "RKO-E6 cells [3]; co-treatment with podophyllotoxin, in words", "value": "did not increase the microtubule inhibitor podophylotoxin's lethality"},
      {"measurement": "Bliss Independence analysis of combination with doxorubicin", "setting": "RKO-E6 cells [3]; combination dose matrix", "value": "exceeded Bliss Independence with doxorubicin at multiple doses"},
      {"measurement": "cell cycle effect in RKO-E6 cells", "setting": "RKO-E6 cells [4]", "value": "pronounced S-phase arrest"},
      {"measurement": "effect on doxorubicin's lethality in RKO cells", "setting": "RKO cells [5]", "value": "increase both doxorubicin's and camptothecin's lethality"}
    ]},
    {"smiles": "C[n+]1ccc(-c2cc[n+](C)cc2)cc1", "note": "[Paraquat]", "values": [
      {"measurement": "toxicity in worms", "setting": "N2 worms", "value": "toxic"}
    ]},
    {"smiles": "C[C@@H]1C[C@@H]([C@H](O)CC2CC(=O)NC(=O)C2)C(=O)[C@@H](C)C1", "note": "[cycloheximide]", "values": [
      {"measurement": "topoisomerase IIα levels", "setting": "topoisomerase IIα", "value": "caused increased topoisomerase IIα levels"},
      {"measurement": "p53, p21, MDM2 levels", "setting": "p53", "value": "caused a disappearance of p53 and p21"},
      {"measurement": "effect on doxorubicin's lethality in RKO-E6 cells", "setting": "RKO-E6 cells [3]; in words", "value": "potentiated doxorubicin's lethality"}
    ]}
  ]
}
